Test results taken from patent publication US20200315171A1, “PSYLLID PHEROMONE COMPOSITIONS” (The Regents of the University of California, priority 2017, published 2020).
Entries after “also recorded” stand apart in the source; their conditions may differ.

Legend:
D. citri adults [1] = assay: Field tests with transparent traps baited with aged lignoceryl acetate lures; format: in vivo, Diaphorina citri
Experimental: Field Experiment 2: Evaluation of aged lignoceryl acetate lures. Lures were prepared and kept in greenhouses for 28 days prior to being fixed in yellow stick cards in the field. Thus, aged lures were tested in the field starting on day 28 until 70 days after preparation of the lures. The area, experimental design, number of traps, and data collection were the same as described above.
Field Experiment 3: Evaluation of lignoceryl acetate lures using transparent traps. To avoid interference from the yellow visual cues from the stick cards, these experiments were performed with transparent acrylic traps (30 cm in length×10 cm in width) and covered with an adhesive glue film (Biostop Cola, Biocontrole, São Paulo, Brazil). The experimental design, number of traps, and data collection were the same as described above.
(§1) Statistical analyses. […] Each pair of a test and a control in indoor behavioral measurements using an Y-olfactometer or 4-way olfactometer, as well in field tests comparing only a single treatment and a control, was compared by using two-tailed, Wilcoxon matched-pairs signed rank test.

[2] = SPME analysis of volatiles from lures matured under field conditions; format: physicochemical; details: lures matured for 5 weeks under field conditions vs new lures
Experimental: Injections were operated in splitless mode with an injector temperature of 250° C. The GC ovens were programmed from 40° C. for 1 min, increased to 300° C. at 10° C./min (held for 50 min). MS transfer line, manifold, and trap were set at 300° C., 50° C., and 217° C., respectively. Quantitative analyses were done on a Shimadzu GC-2010 gas chromatograph equipped with a flame ionization detector (Shimadzu Corp., Kyoto, Japan) and fitted with an HP5-MS capillary column (30 m×0.25 mm i.d.×[…]; Agilent Scientific, Santa Clara, Calif., USA). SPME analyses were done with a 50/30 divinylbenzene (DVB)/carboxen (CAR)/polydimethylsiloxane (PDMS) (Supelco, catalogue number 57328-U). Volatile compounds were collected from the headspace of the samples placed in a closed glass container with a rubber septum on the top. Both laboratories used the same oven temperature program, i.e., starting at 35° C. for 5 min, raising to 70° C. at a rate of 2.5° C./min, then increasing to 150° C. at 5° C./min, and subsequently raising to the final temperature of 250° C. at 20° C./min.

[3] = test system: 7-day-old virgin D. citri males; assay: Y-olfactometer behavioral assay, virgin males as responders; format: in vivo, Diaphorina citri
Experimental: (§2) Indoor behavioral assays. All behavioral assays were conducted in a climate-controlled room (see above). A glass tube in a Y-shape (central tube 15 cm in length and 3 cm in diameter split into two tubes in a 120° angle with the same dimensions used in the central tube) was placed vertically with the decision arms pointing towards the ceiling (light sources). All connections were made with 0.635-diameter polytetrafluoroethylene (PTFE) tubes (Sigma-Aldrich, Bellefonte, Pa., USA). Clean air was provided by an oil-free air compressor (Schulz MSV6, Schulz, Joinville, SC, Brazil) and humidified into milliQ water before the line was split into two separate lines, each one with an air flowmeter with a range from 0.1 to 1.0 L/min (Brooks Instrument, Hatfield, Pa. USA) to allow balanced flow of […]. […] Insects that crossed the central tube line located 5 cm from the bifurcation within the observation time of 5 min were recorded as responders. […]
(§3) Statistical analyses. […] Field tests with multiple comparison (different doses) were analyzed by ANOVA. Capture data were first transformed into log (x+1) and them means were analyzed by Dunnett's test as well as Tukey's test (P<0.05) by comparing the mean of each column with the mean of the control or with the mean of every other group, respectively.

D. citri adults [4] = assay: Field tests with baited yellow sticky traps in a citrus grove; format: in vivo, Diaphorina citri; details: for Males caught: higher-dose field experiment, n=48 per trap
Experimental: Field Experiment 1: Evaluation of lignoceryl acetate, lygnocerol, formic acid, acetic acid, and propionic acid. These experiments were performed in an organic grove of Valencia sweet orange [Citrus sinensis (L.) Osbeck] grafted on ‘Rangpur’ lime (Citrus limonia Osbeck) with natural infestation of D. citri. For this purpose, yellow stick cards (30 cm in length×10 cm in width) with a 2 cm in diameter central hole were used to assess the attractivity of the test compounds to D. citri adults. Compounds were assessed at doses ranging from 0.01 μg to 100 μg. Hexane was used as a control. Tested compounds were incorporated into slow-release devices made of ES fiber (Ethylene-Propylene Side by Side, Chiso Co. Ltd, Japan). The experiments were designed in Latin square using 16 traps spaced 25 m from each other (4 traps per treatment). They were repeated three times over time and the number of captured ACP adults was recorded each 7 days for 49 days.
as §1

ACP male antennae = assay: Electroantennogram (EAG) responses of ACP male antennae to C1-C6 acids; parameters: species or system Diaphorina citri
Experimental: (§4) Electrophysiology. Antennas were mounted, according to a published protocol^26, under a stereoscopic microscope (SZT, BEL Engineering, MB, Italy). Antennae were connected with glass microcapillaries pulled with a PC-10 puller (Narishige, Kanto, Japan). The glass capillaries housed 0.39 mm gold wires (Sigmund Cohn Corp, Mt. Vernon, N.Y.) and were filled with a saline solution (3.7 g NaCl, 0.175 g KCl, 0.17 g CaCl2 in 500 mL of distilled water). Electrodes were connected to a Universal Probe, gain 10× (Syntech, Buchenbach, Germany) and connected to a 2-Chanel IDAC Acquisition Controller (Syntech). The signal was processed with Syntech software (GcEad version 4.6). Two Pasteur pipettes were used one for a flow balance and the other as a stimulus. The stimulus was loaded on a filter paper strip (40×4-mm), which was inserted in the stimulus pipette after evaporation for 1 min. Each cartridge was used only once. The antennal preparation was set at the end of an effluent flow tube, which had two lateral holes (13 cm from the antennal preparations) to accommodate the tips of the Pasteur pipettes (stimulus and flow balance). Humidified continuous flow (0.1 L/min) was generated by a CS-55 Stimulus Controller (Syntech). Flow for stimulus and balance were set at 1 L/min. Stimulus duration was set a 1 s. There was a minimal interval of 1 min between stimuli.

ACP female antennae = assay: Electroantennogram (EAG) responses of ACP female antennae to acids; parameters: species or system Diaphorina citri; details: source dose 10^−1
Experimental: as §4

[5] = test system: olfactory receptor neurons in ACP antennae; details: reported in reference 28; cited from earlier work
[6] = test system: 7-day-old virgin D. citri females; details: acetic acid 0.01 μL/μL hexane, 100 μL
Experimental: as §2, §3

[7] = test system: 7-day-old virgin D. citri females; details: acetic acid 0.01 μL/μL hexane, 100 μL; remark: listed apart in the source
Text: (§5) An air-flow olfactometer, also known as “4-arm olfactometer” or “4-way olfactometer” was constructed^29 (30.0×30.0×2.5 cm in length, width and height, respectively) with acrylic. A constant, charcoal-filtered humidified airflow 0.1 L/min was connected to each odor source, and all airflows converged through individual PTFE tubes to the center of the acrylic arena. Yellow fields were made by adding a yellow laser jet printed-paper below the bottom of the arena with the following color spaces: lightness (84.8±0.04), chroma (98.7±0.40), and hue angle (95.7±0.02) using a colorimeter Minolta CR400 (Konica Minolta Co., Osaka, Japan).^34 Two of the four possible arms received volatiles from acetic acid 0.01 μL/μL hexane (100 μL), whereas the other two remaining received hexane. The psyllids (virgin 7-day-old males or females) were released on the center of the arena. An olfactometer test consisted of the release of a single D. citri and the observation (from 15:00 to 18:00). As a criterion for data collection from each insect, five minutes were allowed for response (first choice). In case of response, 10 minutes were allowed to observe the time spent in each of the four odor fields.
(§6) Statistical analyses. All statistical analyses were done with Prism 7 (GrapPad, La Jolla, Calif.). Each pair of a test and a control in indoor behavioral measurements using an Y-olfactometer or 4-way olfactometer, as well in field tests comparing only a single treatment and a control, was compared by using two-tailed, Wilcoxon matched-pairs signed rank test. Field tests with multiple comparison (different doses) were analyzed by ANOVA. Capture data were first transformed into log (x+1) and them means were analyzed by Dunnett's test as well as Tukey's test (P<0.05) by comparing the mean of each column with the mean of the control or with the mean of every other group, respectively.

[8] = test system: 7-day-old virgin D. citri males; details: acetic acid 0.01 μL/μL hexane, 100 μL
Text: as §5, §6

[9] = yellow sticky traps baited with 0.1 μg
[10] = yellow sticky traps baited with 1 μg
[11] = yellow sticky traps baited with 10 μg

CCCCCCCCCCCCCCCCCCCCCCCCOC(C)=O [24Ac, tetracosyl acetate]
Lure activity (D. citri adults [1]; aged lures, after 3 weeks in field): lost all activity | Males collected vs control traps (D. citri adults [1]; lures aged for 35 days, first week in field): collected significantly more males than control traps | Degradation of lure: volatiles detected by SPME [2]: small amounts of acetic acid in aged but not in new lures | Preference of virgin males for treatment vs control in olfactometer ([3]; 0.1 to 100 μg as odor source, P=0.2031-0.9999): did not show any significant preference | Lure activity after 42 days (D. citri adults [4]; 1 μg per trap, after 42 days): lost activity | Captures in baited traps vs control traps (D. citri adults [4]; 1 μg per trap, at 35 and 42 days): significantly more males were captured | Captures in baited traps vs control traps (D. citri adults [4]; 1, 10 and 100 μg per trap, first weeks of the experiments): not significantly different | Captures in baited traps vs control traps (D. citri adults [4]; 1.0, 10 and 100 μg, 35 and 42 days after onset): a significant difference was observed; also recorded: significantly higher than captures in control traps

CCCCCC(=O)O [hexanoic acid, reference compound]
EAG response (ACP male antennae; source dose 10^−1): no response

O=CO [formic acid]
EAG response (ACP male antennae; source dose 10^−1): 1.60±0.63 mV | EAG response (ACP male antennae; source dose 10^−2): 0.42±0.37 mV | EAG response (ACP female antennae): 1.86±0.48 mV | ACP adults captured (D. citri adults [4]; [9]): 2.59±0.30 D. citri per trap per week | ACP adults captured (D. citri adults [4]; [10]): 9.17±0.36 D. citri per trap per week | ACP adults captured (D. citri adults [4]; [11]): 7.14±0.34 D. citri per trap per week

CC(=O)O [acetic acid]
Effect on responses from olfactory receptor neurons [5]: inhibit responses | Female response to baited arm vs control side of Y-olfactometer [6]: did not differ significantly | Female choice between treatment and control sides of 4-way olfactometer [7]: did not distinguish | Time spent by females on treatment vs control sides of 4-way olfactometer [7]: not significantly different | Time spent by males in treatment vs control fields of 4-way olfactometer [8]: spent significantly more time | Male preference for treatment fields vs control sides in 4-way olfactometer ([8]; first choice): highly significant | Male attraction to treatment side vs control side of Y-olfactometer ([3]; acetic acid 0.01 μL/μL hexane, 100 μL): significantly more attracted | EAG response (ACP male antennae; source dose 10^−1): 2.70±0.36 mV | EAG response (ACP male antennae; source dose 10^−2): 1.73±0.37 mV | EAG response (ACP male antennae; very low dose 10^−3): 0.44±0.21 mV | EAG response (ACP female antennae): 3.22±0.94 mV | Captures vs control traps, preliminary field experiments (D. citri adults [4]; traps baited with 1 ug): captured significantly more ACP adults than control traps | Males caught (D. citri adults [4]; traps baited with 1 μg): 2.48±0.25 males per trap per day | Males caught (D. citri adults [4]; traps baited with 10 μg): 3.08±0.33 males per trap per day | Males caught (D. citri adults [4]; traps baited with 100 μg): 4.23±0.35 males per trap per day | ACP adults captured (D. citri adults [4]; [9]): 7.42±0.35 D. citri per trap per week | ACP adults captured (D. citri adults [4]; [10]): 14.77±0.54 D. citri per trap per week | ACP adults captured (D. citri adults [4]; [11]): 9.52±0.50 D. citri per trap per week

CCCC(=O)O [butyric acid]
EAG response (ACP male antennae; source dose 10^−1): 0.52±0.36 mV

CCCCC(=O)O [valeric acid]
EAG response (ACP male antennae; source dose 10^−1): 0.24±0.03 mV

CCC(=O)O [propionic acid]
Effect on responses from olfactory receptor neurons [5]: inhibit responses | EAG response (ACP male antennae; source dose 10^−1): 2.22±0.29 mV | EAG response (ACP male antennae; source dose 10^−2): 1.13±0.47 mV | EAG response (ACP female antennae): 2.90±1.09 mV | ACP adults captured (D. citri adults [4]; yellow sticky traps baited with 0.01 μg): 9.52±0.52 D. citri per trap per week | ACP adults captured (D. citri adults [4]; [9]): 18.27±0.52 D. citri per trap per week | ACP adults captured (D. citri adults [4]; [10]): 13.79±0.53 D. citri per trap per week

CCCCCCCCCCCCCCCCCCCCCCCCO [240H, lignocerol, reference compound]
Captures in treatment vs control traps (D. citri adults [4]; doses from 0.1 to 100 μg, each week, Dunnett P=0.2770-0.9999, n=4 per dose per week): did not find significant differences
